According to patent US8114590B2, “Diagnosis and treatment of chronic lymphocytic leukemia (CLL)” (The Regents of the University of California, priority 2005, dated 2012):

Key:
CLL-PBMC [1] = settings: literature (refs 8, 9, 13); cited from earlier work
CLL-PBMC [2] = settings: 72 h
Description: (§1) Apoptosis: PBMC (1 million cells/ml) from B-CLL patients or normal subjects were cultured in RPMI media supplemented with 10% FBS, L-glutamine and penicillin/streptomycin at 37° C. in 5% CO2 and treated with either vehicle or the PDE7 inhibitor BRL-50481 for 72 h. Apoptosis was assessed by flow cytometry as the percentage of cells stained with Annexin V and Propidium Iodide (PI) and analyzed by FACScan using CELLQuest software (Becton-Dickinson Immunocytometry System) (18).
(§2) PBMC from CLL patients (n=10) and normal subjects (n=6) were grown in the absence or presence of BRL-50481 (10 μM, 30 μM and 100 μM) for 72 h.

normal-PBMC = settings: 10, 30 and 100 μM, 72 h, normal subjects n=6
Description: as §1, §2

CD8+ T-lymphocytes = settings: 30 μM, literature (ref 25); cited from earlier work
monocytes or macrophages = settings: 30 μM, literature (ref 25); cited from earlier work

Structure (SMILES) | induction of apoptosis in CLL-PBMC (CLL-PBMC [1]) | dose dependence of apoptosis induction in CLL-PBMC (CLL-PBMC [2]; 10 μM, 30 μM and 100 μM) | increase in apoptosis in CLL-PBMC (CLL-PBMC [2]; ≧30 uM, CLL patients n=10, relative to vehicle control) | induction of apoptosis in PBMC from normal subjects (normal-PBMC) | inhibition of IL-5-promoted proliferation of CD8+ T-lymphocytes (CD8+ T-lymphocytes) | effect on TNFα release in monocytes or macrophages (monocytes or macrophages)
CN(C(=O)CCCOc1ccc2[nH]c(=O)ccc2c1)C1CCCCC1 [cilostamide] | does not induce apoptosis |  |  |  |  | 
Cc1ccc([N+](=O)[O-])cc1S(=O)(=O)N(C)C [BRL-50481, 3-(N,N-dimethylsulfonamido)-4-methyl-nitrobenzene] |  | consistently and dose-dependently induced apoptosis | 20-40% | not in PBMC from normal subjects | failed to inhibit | little effect
Cn1c(=O)c2[nH]cnc2n(C)c1=O [theophylline] | induces apoptosis |  |  |  |  | 
